Source: PMC4447944 (The Journal of Biological Chemistry, 2015)

What was measured:
hHASPIN = target: T1, hHASPIN (Homo sapiens, UniProt Q8TF76); experiment: KINOMEscan; format: binding
T1 construct: purchased DiscoverX

hCSNK2A1 = target: T2, hCSNK2A1 (Homo sapiens, UniProt P68400); experiment: KINOMEscan; format: binding
T2 construct: purchased DiscoverX (KINOMEscan platform)

hTAOK1 = target: T3, hTAOK1 (Homo sapiens, UniProt Q7L7X3); experiment: KINOMEscan; format: binding
T3 construct: purchased DiscoverX

hYANK1 = target: T4, hYANK1 (Homo sapiens, UniProt Q8WU08); experiment: KINOMEscan; format: binding
T4 construct: purchased DiscoverX

hERK3 = target: T5, hERK3 (Homo sapiens, UniProt Q16659); experiment: KINOMEscan; format: binding
T5 construct: purchased DiscoverX

hFLT3(R834Q) = target: T6, hFLT3(R834Q) (Homo sapiens, UniProt P36888, R834Q); experiment: KINOMEscan; format: binding
T6 construct: purchased DiscoverX

hASK2 = target: T7, hASK2 (Homo sapiens, UniProt O95382); experiment: KINOMEscan; format: binding
T7 construct: purchased DiscoverX

hH1 = hH1 (Homo sapiens, UniProt P35367); experiment: Ca Mobilization Potentiation (Eurofins-CEREP); settings: @ 10 μM
hBRSK2 = target: T8, hBRSK2 (Homo sapiens, UniProt Q8IWQ3); experiment: KINOMEscan; format: binding
T8 construct: purchased DiscoverX

hGSK3B = target: T9, hGSK3B (Homo sapiens, UniProt P49841); experiment: KINOMEscan; format: binding
T9 construct: purchased DiscoverX

hHIPK2 = target: T10, hHIPK2 (Homo sapiens, UniProt Q9H2X6); experiment: KINOMEscan; format: binding
T10 construct: purchased DiscoverX

hADRα2A = target: T11, hADRα2A (Homo sapiens, UniProt P08913); experiment: β-arrestin Antagonist (Eurofins-CEREP); settings: read-out: % Effect, Inhibition
T11 sequence (P08913 1-465): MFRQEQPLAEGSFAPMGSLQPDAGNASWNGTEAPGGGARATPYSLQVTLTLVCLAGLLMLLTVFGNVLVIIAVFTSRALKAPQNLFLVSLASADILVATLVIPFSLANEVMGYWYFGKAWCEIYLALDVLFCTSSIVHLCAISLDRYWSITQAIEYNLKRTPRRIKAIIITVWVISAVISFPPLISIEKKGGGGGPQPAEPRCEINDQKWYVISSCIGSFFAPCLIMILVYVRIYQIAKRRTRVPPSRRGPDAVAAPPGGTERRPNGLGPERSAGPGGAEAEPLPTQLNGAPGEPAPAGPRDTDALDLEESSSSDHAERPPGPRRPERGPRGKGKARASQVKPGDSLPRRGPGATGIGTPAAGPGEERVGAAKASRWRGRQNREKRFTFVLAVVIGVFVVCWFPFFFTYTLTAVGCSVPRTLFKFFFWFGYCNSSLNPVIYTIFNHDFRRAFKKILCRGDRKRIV

hMAP3K3 = target: T12, hMAP3K3 (Homo sapiens, UniProt Q99759); experiment: KINOMEscan; format: binding
T12 construct: purchased DiscoverX (KINOMEscan platform)

hADORA3 = target: T13, hADORA3 (Homo sapiens, UniProt P0DMS8); experiment: cAMP Agonist (Eurofins-CEREP); settings: @ 10 μM
T13 sequence (P0DMS8 1-318): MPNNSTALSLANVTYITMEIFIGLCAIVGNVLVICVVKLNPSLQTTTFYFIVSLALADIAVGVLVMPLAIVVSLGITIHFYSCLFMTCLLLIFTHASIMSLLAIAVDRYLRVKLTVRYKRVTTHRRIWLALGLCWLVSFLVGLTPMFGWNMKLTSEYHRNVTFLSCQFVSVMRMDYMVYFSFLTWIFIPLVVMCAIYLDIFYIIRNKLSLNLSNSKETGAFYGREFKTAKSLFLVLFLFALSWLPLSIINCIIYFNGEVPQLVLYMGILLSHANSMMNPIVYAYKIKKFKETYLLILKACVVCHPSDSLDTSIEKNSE

hCSNK1D = target: T14, hCSNK1D (Homo sapiens, UniProt P48730); experiment: KINOMEscan; format: binding
T14 construct: purchased DiscoverX (KINOMEscan platform)

hD1 = hD1 (Homo sapiens, UniProt P21728); experiment: cAMP Agonist (Eurofins-CEREP); settings: @ 10 μM
hBMX = target: T15, hBMX (Homo sapiens, UniProt P51813); experiment: KINOMEscan; format: binding
T15 construct: purchased DiscoverX

hCAMK4 = target: T16, hCAMK4 (Homo sapiens, UniProt Q16566); experiment: KINOMEscan; format: binding
T16 construct: purchased DiscoverX

hCLK3 = target: T17, hCLK3 (Homo sapiens, UniProt P49761); experiment: KINOMEscan; format: binding
T17 construct: purchased DiscoverX

hSBK1 = target: T18, hSBK1 (Homo sapiens, UniProt Q52WX2); experiment: KINOMEscan; format: binding
T18 construct: purchased DiscoverX (KINOMEscan platform)

hMAPKAPK2 = target: T19, hMAPKAPK2 (Homo sapiens, UniProt P49137); experiment: KINOMEscan; format: binding
T19 construct: purchased DiscoverX

hDAPK2 = target: T20, hDAPK2 (Homo sapiens, UniProt Q9UIK4); experiment: KINOMEscan; format: binding
T20 construct: purchased DiscoverX (KINOMEscan platform)

[1] = target: T21, hJAK1(JH2Dom.-pseudokinase) (Homo sapiens, UniProt P23458); experiment: KINOMEscan; format: binding
T21 construct: hJAK1(JH2Dom.-pseudokinase); purchased DiscoverX (KINOMEscan panel)

hPRP4 = target: T22, hPRP4 (Homo sapiens, UniProt Q13523); experiment: KINOMEscan; format: binding
T22 construct: purchased DiscoverX

hM3 = hM3 (Homo sapiens, UniProt P20309); experiment: Calcium Mobilization Potentiation (Eurofins-CEREP); settings: @ 10 μM
hBUB1 = target: T23, hBUB1 (Homo sapiens, UniProt O43683); experiment: KINOMEscan; format: binding
T23 construct: purchased DiscoverX
T23 sequence (O43683 whole entry): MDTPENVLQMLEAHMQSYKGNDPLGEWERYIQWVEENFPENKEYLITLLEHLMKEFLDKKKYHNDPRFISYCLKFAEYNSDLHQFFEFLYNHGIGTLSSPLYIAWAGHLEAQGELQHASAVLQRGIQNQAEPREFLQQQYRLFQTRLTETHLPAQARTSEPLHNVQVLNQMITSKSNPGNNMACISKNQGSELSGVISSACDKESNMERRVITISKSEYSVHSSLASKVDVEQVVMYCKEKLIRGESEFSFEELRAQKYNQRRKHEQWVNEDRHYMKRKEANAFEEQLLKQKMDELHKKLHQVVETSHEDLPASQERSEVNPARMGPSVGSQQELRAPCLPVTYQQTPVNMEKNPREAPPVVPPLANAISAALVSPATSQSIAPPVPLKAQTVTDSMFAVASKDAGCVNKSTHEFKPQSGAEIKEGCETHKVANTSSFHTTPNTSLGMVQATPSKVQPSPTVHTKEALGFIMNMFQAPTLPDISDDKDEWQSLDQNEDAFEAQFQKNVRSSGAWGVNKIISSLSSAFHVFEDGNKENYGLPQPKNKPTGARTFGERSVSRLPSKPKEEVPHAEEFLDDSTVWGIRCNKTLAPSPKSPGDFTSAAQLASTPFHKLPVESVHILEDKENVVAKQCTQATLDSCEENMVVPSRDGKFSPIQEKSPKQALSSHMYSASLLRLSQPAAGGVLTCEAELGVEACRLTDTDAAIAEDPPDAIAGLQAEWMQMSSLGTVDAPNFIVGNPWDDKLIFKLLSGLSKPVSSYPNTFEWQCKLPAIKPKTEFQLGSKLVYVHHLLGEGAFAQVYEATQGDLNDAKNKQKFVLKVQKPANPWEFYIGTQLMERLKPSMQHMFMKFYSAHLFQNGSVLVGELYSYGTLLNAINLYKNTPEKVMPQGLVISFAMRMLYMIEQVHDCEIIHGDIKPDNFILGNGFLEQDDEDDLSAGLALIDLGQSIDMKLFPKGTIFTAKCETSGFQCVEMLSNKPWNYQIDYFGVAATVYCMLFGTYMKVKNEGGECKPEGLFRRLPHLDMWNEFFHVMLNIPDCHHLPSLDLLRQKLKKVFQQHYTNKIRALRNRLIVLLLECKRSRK

T19 sequence (P49137 whole entry): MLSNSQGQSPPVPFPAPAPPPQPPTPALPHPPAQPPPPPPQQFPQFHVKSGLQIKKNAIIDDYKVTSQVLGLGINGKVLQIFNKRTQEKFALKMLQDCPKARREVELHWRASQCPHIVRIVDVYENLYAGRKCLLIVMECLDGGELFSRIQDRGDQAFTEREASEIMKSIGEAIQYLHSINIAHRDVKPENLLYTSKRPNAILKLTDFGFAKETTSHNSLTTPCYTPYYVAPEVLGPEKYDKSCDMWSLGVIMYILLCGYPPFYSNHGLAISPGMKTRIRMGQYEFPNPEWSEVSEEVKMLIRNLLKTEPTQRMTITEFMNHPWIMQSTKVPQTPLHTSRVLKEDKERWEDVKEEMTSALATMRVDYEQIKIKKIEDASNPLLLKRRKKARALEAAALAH
T2 sequence (P68400 whole entry): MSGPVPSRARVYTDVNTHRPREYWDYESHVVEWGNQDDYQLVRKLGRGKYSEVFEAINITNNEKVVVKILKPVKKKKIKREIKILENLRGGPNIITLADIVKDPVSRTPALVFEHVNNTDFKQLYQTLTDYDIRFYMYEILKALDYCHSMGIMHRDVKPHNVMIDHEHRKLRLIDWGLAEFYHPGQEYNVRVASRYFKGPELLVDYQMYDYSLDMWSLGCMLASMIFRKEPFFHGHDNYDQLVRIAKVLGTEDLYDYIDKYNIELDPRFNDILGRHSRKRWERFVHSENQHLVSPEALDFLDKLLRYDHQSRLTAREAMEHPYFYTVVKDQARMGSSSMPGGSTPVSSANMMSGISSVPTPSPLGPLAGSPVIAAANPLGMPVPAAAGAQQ
T1 sequence (Q8TF76 whole entry): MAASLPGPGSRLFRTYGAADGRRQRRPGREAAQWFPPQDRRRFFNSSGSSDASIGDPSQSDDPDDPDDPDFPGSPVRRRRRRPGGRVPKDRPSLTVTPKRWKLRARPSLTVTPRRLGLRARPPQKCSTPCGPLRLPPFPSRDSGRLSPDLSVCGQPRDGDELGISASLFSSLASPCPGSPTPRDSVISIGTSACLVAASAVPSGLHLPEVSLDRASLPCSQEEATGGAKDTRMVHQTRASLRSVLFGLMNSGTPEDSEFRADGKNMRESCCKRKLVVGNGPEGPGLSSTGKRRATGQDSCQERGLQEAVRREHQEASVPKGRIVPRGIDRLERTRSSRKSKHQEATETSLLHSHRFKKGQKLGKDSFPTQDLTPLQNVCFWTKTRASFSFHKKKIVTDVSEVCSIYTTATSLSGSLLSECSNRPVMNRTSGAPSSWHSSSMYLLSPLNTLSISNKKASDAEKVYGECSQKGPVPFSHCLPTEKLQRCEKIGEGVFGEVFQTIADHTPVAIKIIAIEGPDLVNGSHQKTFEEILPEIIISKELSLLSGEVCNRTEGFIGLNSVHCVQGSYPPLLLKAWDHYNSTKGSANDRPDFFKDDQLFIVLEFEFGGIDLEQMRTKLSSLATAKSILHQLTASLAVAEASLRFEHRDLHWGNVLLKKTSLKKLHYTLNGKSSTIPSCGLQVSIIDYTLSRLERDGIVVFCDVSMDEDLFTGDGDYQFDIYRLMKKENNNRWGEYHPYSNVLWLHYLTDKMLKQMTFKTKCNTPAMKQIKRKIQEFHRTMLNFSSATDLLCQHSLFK
Chain of hH1 (P35367 whole entry): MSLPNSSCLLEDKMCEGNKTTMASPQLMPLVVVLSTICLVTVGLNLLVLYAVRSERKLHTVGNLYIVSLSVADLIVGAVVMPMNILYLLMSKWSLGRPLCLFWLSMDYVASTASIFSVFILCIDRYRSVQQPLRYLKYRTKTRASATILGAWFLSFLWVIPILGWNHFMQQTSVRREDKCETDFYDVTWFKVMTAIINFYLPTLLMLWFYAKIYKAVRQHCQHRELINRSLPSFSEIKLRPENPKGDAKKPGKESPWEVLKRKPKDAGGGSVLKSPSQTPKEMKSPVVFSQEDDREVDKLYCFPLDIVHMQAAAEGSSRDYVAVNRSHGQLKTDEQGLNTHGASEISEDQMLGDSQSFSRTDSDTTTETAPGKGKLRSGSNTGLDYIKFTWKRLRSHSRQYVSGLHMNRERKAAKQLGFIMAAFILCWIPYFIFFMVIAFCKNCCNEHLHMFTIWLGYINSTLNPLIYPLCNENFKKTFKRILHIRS
Chain of hM3 (P20309 whole entry): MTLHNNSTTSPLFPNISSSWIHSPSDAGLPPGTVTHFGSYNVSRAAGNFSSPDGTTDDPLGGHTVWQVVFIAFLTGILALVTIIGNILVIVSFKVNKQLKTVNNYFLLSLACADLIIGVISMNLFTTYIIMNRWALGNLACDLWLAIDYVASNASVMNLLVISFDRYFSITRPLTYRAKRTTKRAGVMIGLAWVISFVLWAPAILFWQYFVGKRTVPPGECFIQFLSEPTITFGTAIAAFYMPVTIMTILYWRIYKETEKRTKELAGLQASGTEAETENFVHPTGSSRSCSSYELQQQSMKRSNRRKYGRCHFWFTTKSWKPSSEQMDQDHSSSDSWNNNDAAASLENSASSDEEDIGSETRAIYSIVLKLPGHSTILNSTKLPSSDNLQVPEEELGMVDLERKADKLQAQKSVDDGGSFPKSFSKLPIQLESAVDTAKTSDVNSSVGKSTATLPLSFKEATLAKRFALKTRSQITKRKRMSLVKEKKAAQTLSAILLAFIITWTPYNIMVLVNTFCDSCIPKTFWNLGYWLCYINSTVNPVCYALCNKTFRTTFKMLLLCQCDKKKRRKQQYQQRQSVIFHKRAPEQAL
T5 sequence (Q16659 whole entry): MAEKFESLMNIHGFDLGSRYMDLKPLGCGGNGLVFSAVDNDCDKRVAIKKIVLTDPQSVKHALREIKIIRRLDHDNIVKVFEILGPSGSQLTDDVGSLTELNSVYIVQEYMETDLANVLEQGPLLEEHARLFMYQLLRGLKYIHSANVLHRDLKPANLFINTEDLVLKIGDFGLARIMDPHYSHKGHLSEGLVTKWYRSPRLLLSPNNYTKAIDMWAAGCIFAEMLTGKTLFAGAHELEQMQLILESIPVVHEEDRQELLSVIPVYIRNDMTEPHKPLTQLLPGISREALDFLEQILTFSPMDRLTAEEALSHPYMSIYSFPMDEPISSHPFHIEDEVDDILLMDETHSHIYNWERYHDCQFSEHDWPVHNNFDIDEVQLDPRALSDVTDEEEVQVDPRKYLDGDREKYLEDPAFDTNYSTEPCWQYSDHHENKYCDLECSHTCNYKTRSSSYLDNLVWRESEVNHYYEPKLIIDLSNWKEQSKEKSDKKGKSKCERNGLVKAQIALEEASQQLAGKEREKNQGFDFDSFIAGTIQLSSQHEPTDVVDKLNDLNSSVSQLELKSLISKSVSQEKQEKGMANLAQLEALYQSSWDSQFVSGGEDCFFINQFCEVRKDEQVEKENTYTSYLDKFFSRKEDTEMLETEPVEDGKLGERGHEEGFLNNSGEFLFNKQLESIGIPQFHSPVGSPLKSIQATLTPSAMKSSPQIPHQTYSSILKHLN
T21 sequence (P23458 583-855 limits assumed): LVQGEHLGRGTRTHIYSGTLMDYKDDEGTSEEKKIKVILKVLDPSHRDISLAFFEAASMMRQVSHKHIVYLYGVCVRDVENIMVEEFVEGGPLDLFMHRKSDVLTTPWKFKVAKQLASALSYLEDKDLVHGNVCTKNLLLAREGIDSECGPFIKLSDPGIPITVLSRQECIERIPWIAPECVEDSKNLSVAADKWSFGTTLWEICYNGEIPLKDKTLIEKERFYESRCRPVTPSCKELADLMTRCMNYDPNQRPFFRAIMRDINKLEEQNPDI

Cc1cn(CCN2CCN(c3ccccc3-c3cc(C#N)cc(C(=O)NCCCN4CCCC4)c3)CC2)c2ccccc12 [LLY-507, 3-cyano-5-{2-[4-[2-(3-methylindol-1-yl)ethyl]piperazin-1-yl]-phenyl}-N-[(3-pyrrolidin-1-yl)propyl]benzamide]
IC50 (hHASPIN): > 20 µM
IC50 (hCSNK2A1): > 20 µM
IC50 (hTAOK1): > 20 µM
IC50 (hYANK1): > 20 µM
IC50 (hERK3): > 20 µM
IC50 (hFLT3(R834Q)): > 20 µM
IC50 (hASK2): > 20 µM
% Effect, Potentiation (hH1): -8.5%
IC50 (hBRSK2): > 20 µM
IC50 (hGSK3B): > 20 µM
IC50 (hHIPK2): > 20 µM
inhibition at 10 µM (hADRα2A): -27.7%
IC50 (hMAP3K3): > 20 µM
% Effect, Stimulation (hADORA3): 2.6%
IC50 (hCSNK1D): > 20 µM
% Effect, Stimulation (hD1): -6.8%
IC50 (hBMX): > 20 µM
IC50 (hCAMK4): > 20 µM
IC50 (hCLK3): > 20 µM
IC50 (hSBK1): > 20 µM
IC50 (hMAPKAPK2): > 20 µM
IC50 (hDAPK2): > 20 µM
IC50 [1]: > 20 µM
IC50 (hPRP4): > 20 µM
% Effect, Potentiation (hM3): -18%
IC50 (hBUB1): > 20 µM
